In the oligonucleotide strings, read from the 5' end, every base follows the letter of its sugar. An asterisk marks phosphorothioate; unmarked linkages are phosphodiester. Other units and linkages are bracketed, terminal groups are in braces. A string of capitals states the bases alone. d = 2'-deoxy (DNA); m = 2'-O-methyl
What was measured:
Assay type in all cases: cell-based
[1] = molecular target: T1, cGAS (Homo sapiens, UniProt Q8N884); assay: ISD70-driven IP-10 production in MG-63 cells; design: endogenous in cells; conditions: indicated concentrations up to 500 nM, ~30 min, ISD overnight (FIG. 24)
T1 sequence (Q8N884 whole entry): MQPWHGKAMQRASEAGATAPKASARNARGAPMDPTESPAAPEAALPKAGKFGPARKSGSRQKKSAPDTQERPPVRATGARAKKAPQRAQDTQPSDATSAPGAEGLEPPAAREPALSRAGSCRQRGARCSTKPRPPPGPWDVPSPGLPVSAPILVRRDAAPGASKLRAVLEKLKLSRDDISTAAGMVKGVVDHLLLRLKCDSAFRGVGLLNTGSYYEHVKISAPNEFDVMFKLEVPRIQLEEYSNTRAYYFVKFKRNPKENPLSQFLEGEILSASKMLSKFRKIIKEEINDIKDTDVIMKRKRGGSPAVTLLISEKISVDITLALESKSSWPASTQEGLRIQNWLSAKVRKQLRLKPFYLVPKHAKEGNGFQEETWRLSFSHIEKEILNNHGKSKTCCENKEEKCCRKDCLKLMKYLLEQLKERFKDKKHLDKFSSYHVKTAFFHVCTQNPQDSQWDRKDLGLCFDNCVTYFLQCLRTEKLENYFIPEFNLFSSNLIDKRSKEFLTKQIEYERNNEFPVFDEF

[2] = molecular target: T1, cGAS; assay: ISD70-driven IP-10 (and IFN-β) production in THP-1 cells, ELISA; design: endogenous in cells; host or cells: THP-1 (undifferentiated); conditions: for cGAS 100 nM (averaged IP-10 level relative to ISD70 condition): ASO 100 nM, relative to ISD70 only, given as fraction; for cGAS-100 nM: averaged IP-10 levels relative to ISD70: 100 nM ASO overnight, then ISD70 2.5 μg/ml 7-8 h, percentage of ISD70 only
[3] = molecular target: T1, cGAS; assay: ISD70-driven IP-10 production in HT-29 cells, ELISA; design: endogenous in cells; conditions: 187.5 nM ASO overnight, ISD70 24 h

CGCTTTTCTGTCTGGT (antisense; LNA-modified, pattern not given here) [CTNN2B-311 LNA KL]
IP-10 after ISD in MG-63, MOE and LNA ASOs (in words) [1]: did not inhibit IP-10 production
cGAS 100 nM (averaged IP-10 level relative to ISD70 condition) [2]: 0.475
inhibition of cGAS in THP-1, LNA and MOE ASO validation (in words) ([2]; THP-1, 300 nM LNA or 200 nM MOE ASO ~30 min, ISD70 overnight (FIG. 21, 23)): potently inhibited signalling

mG*mC*mA*mG*mU*C*T*C*C*A*T*G*T*C*C*mC*mA*mG*mG*mC (GCAGUCTCCATGTCCCAGGC; antisense; sugars from the 5' end m5 d10 m5, all phosphorothioate, methylation of C not given here) [[CDKN2B-AS1]2234]
inhibition of ISD70-dependent IP-10 production (in words) [3]: robustly inhibited ISD70-dependent IP-10 production
cGAS-100 nM: averaged IP-10 levels relative to ISD70 ([2]; THP-1): 10.02%
inhibition of ISD70-driven IP-10 production (in words) ([2]; THP-1, 2′OMe or PS oligos, 100-250 nM, pre-treatment as in figure legends, ISD70 2.5 μg/ml): robustly inhibited ISD70-dependent IP-10 production

ATGTGATGGCCTCCCA (antisense; LNA-modified, pattern not given here) [HPRT LNA-335 V1]
cGAS 100 nM (averaged IP-10 level relative to ISD70 condition) [2]: 0.606

GTCTCTGGAGCTTCCT (antisense; LNA-modified, pattern not given here) [CAMSAP1-2456 LNA V1]
cGAS 100 nM (averaged IP-10 level relative to ISD70 condition) [2]: 0.627

GATGGCCTCCCATCTC (antisense; LNA-modified, pattern not given here) [HPRT LNA-331 V1]
cGAS 100 nM (averaged IP-10 level relative to ISD70 condition) [2]: 0.632

TCCGCCCAAAGGGAAC (antisense; LNA-modified, pattern not given here) [HPRT LNA-1027 KL]
cGAS 100 nM (averaged IP-10 level relative to ISD70 condition) [2]: 0.860

GTGATGGCCTCCCATC (antisense; LNA-modified, pattern not given here) [HPRT LNA-333 V1]
cGAS 100 nM (averaged IP-10 level relative to ISD70 condition) [2]: 0.724

GTCCTTGCACGTGGCT (antisense; LNA-modified, pattern not given here) [EGFR-1015 LNA V1]
cGAS 100 nM (averaged IP-10 level relative to ISD70 condition) [2]: 0.645

GGTCATTACAATAGCT (antisense; LNA-modified, pattern not given here) [HPRT LNA-475 KL]
cGAS 100 nM (averaged IP-10 level relative to ISD70 condition) [2]: 0.751

CATCCACCACGTCGTC (antisense; LNA-modified, pattern not given here) [EGFR-3266 LNA V1]
cGAS 100 nM (averaged IP-10 level relative to ISD70 condition) [2]: 0.902

TCCACAATCAAGACAT (antisense; LNA-modified, pattern not given here) [HPRT LNA-551 KL]
cGAS 100 nM (averaged IP-10 level relative to ISD70 condition) [2]: 0.601

TCTTGGCTTCGTGGAG (antisense; LNA-modified, pattern not given here) [MB21D1-521 LNA V1]
cGAS 100 nM (averaged IP-10 level relative to ISD70 condition) [2]: 0.693

ACCACGTCTGCTCTAA (antisense; LNA-modified, pattern not given here) [CAMSAP1-1635 LNA KL]
cGAS 100 nM (averaged IP-10 level relative to ISD70 condition) [2]: 0.638

CCACATCCTGTGGCTC (antisense; LNA-modified, pattern not given here) [CAMSAP1-2906 LNA V1]
cGAS 100 nM (averaged IP-10 level relative to ISD70 condition) [2]: 0.999

CTGCAGCTTCCTTGTC (antisense; LNA-modified, pattern not given here) [CTNN2B-2136 LNA V1]
cGAS 100 nM (averaged IP-10 level relative to ISD70 condition) [2]: 0.613

GTGATCTTGACATGCT (antisense; LNA-modified, pattern not given here) [EGFR-2790 LNA KL]
cGAS 100 nM (averaged IP-10 level relative to ISD70 condition) [2]: 0.661

ACGTTCAGTCCTGTCC (antisense; LNA-modified, pattern not given here) [HPRT LNA-294 V1]
cGAS 100 nM (averaged IP-10 level relative to ISD70 condition) [2]: 0.880

AATCCAACAAAGTCTG (antisense; LNA-modified, pattern not given here) [HPRT LNA-692 KL]
cGAS 100 nM (averaged IP-10 level relative to ISD70 condition) [2]: 0.649

GAGGTCTTGGCTTCGT (antisense; LNA-modified, pattern not given here) [MB21D1-525 LNA V1]
cGAS 100 nM (averaged IP-10 level relative to ISD70 condition) [2]: 0.508

GGAGGTCTTGGCTTCG (antisense; LNA-modified, pattern not given here) [MB21D1-526 LNA V1]
cGAS 100 nM (averaged IP-10 level relative to ISD70 condition) [2]: 1.061

mC*mA*mG*mU*mG*T*T*T*T*T*A*A*T*T*T*mU*mG*mU*mA*mG (mC*mA*mG*mU*mG*dT*dT*dT*dT*dT*dA*dA*dT*dT*dT*mU*mG*mU*mA*mG; antisense) [[CDKN2B-AS1]613]
cGAS-100 nM: averaged IP-10 levels relative to ISD70 ([2]; THP-1): 60.94%

CCAACACTTCGTGGGG (antisense; LNA-modified, pattern not given here) [HPRT LNA-668 V1]
cGAS 100 nM (averaged IP-10 level relative to ISD70 condition) [2]: 0.842

TCCATACCCAAGGCAT (antisense; LNA-modified, pattern not given here) [CTNN2B-2446 LNA V1]
cGAS 100 nM (averaged IP-10 level relative to ISD70 condition) [2]: 0.589

ATGGCCTCCCATCTCC (antisense; LNA-modified, pattern not given here) [HPRT LNA-330 V1]
cGAS 100 nM (averaged IP-10 level relative to ISD70 condition) [2]: 0.475

TCGTGGGGTCCTTTTC (antisense; LNA-modified, pattern not given here) [HPRT LNA-660 V1]
cGAS 100 nM (averaged IP-10 level relative to ISD70 condition) [2]: 0.729

AGATTTCAGAGCAGCT (antisense; LNA-modified, pattern not given here) [EGFR-4885 LNA KL]
cGAS 100 nM (averaged IP-10 level relative to ISD70 condition) [2]: 0.625

mC*mA*mG*mU*mC*T*C*C*A*T*G*T*C*C*C*mA*mG*mG*mC*mC (mC*mA*mG*mU*mC*dT*dC*dC*dA*dT*dG*dT*dC*dC*dC*mA*mG*mG*mC*mC; antisense) [[CDKN2B-AS1]2233]
cGAS-100 nM: averaged IP-10 levels relative to ISD70 ([2]; THP-1): 75.92%

mA*mU*mU*mU*mC*C*A*C*A*T*G*C*C*C*A*mG*mU*mG*mU*mU (AUUUCCACATGCCCAGUGUU; antisense; sugars from the 5' end m5 d10 m5, all phosphorothioate, methylation of C not given here) [[CDKN2B-AS1]626]
cGAS-100 nM: averaged IP-10 levels relative to ISD70 ([2]; THP-1): 52.58%
